Assay results: patent US20100015249A1, “Antitumor agent containing 6'-amidino-2'-naphthyl 4-guanidinobenzoate or salt thereof” (priority 2005, published 2010)

What was measured:
[1] = system: human pancreas cancer cell line MDAPanc-28; assay: Apoptosis ratio by flow cytometry (propidium iodide, FACScan); format: cell-based; details: for apoptosis induction in combination with gemcitabine: MDAPanc-28, pretreatment with the agent 3 hours then gemcitabine 48 hours, compared with gemcitabine alone
Procedure: The present inventors next examined the effect of these agents on apoptosis induction in the human pancreas cancer cell line MDAPanc-28. […] Flow cytometry was used to confirm the occurrence of apoptosis. Cells were collected after treatments with the agents and fixed in 70% ethanol at −20° C. for 24 hours. After rinsing with PBS, cells were suspended in PBS containing 50 μg/ml of propium iodide, 0.1% Triton X-100, 0.1% sodium citrate and 1 μg/ml of DNase free RNase. The samples were incubated at room temperature for 30 minutes and the amount of DNA was measured by using FACScan.

[2] = system: human pancreas cancer cell line MDAPanc-28; assay: MTT assay of cell survival rate / living cell ratio; format: cell-based; details: MDAPanc-28, single agent, MTT
Procedure: The present inventors examined the concomitant effect of FUT and TNF-α on apoptosis in cancer cells. After treatment with TNF-α for 24 hours, the human pancreas cancer cell line MDAPanc-28 was further cultured for 24 hours with various concentrations of FUT being added. Cells prepared were then subjected to an MTT assay according to the method generally known to calculate the cell survival rates. Also, DNA was extracted to perform a DNA fragmentation assay.
More specifically, with regard to the MTT assay, each well was seeded with 2000 cells per 100 μl of culture medium in a 96-well microtiterplate, followed by the above mentioned treatment. After plate centrifugation, each well received 5 mg/ml of MTT (Sigma) PBS solution instead of culture medium and was incubated for 4 hours at 37° C. After removing the supernatant, 100 μl of DMSO were added to dissolve the cells. The absorbance of the samples was measured at 570 nm by using a microplate reader. 8 wells were subjected to the same condition in this experiment. Two independent experiments were performed, and the average was calculated.
However, the agents are of different types with different mechanisms of action. Therefore, the present inventors examined the effect of each agent on the living cell ratio in the human pancreas cancer cell line MDAPanc-28 singularly. After being treated with each agent for 24 hours and 48 hours, the human pancreas cancer cell line MDAPanc-28 was subjected to a MTT assay. The MTT assay was performed by the method described in Example 9.

[3] = system: Murine fiber cells; assay: Effect on survival rate of normal cells; format: cell-based; details: concentrations under which apoptosis was induced in cells
Source text: Therefore, the present inventors next examined the effect of FUT treatment on normal cells. Murine fiber cells were used as normal cells.

[4] = system: NF-κB; assay: Gel shift assay of gemcitabine-induced NF-κB activation; format: cell-based, human; details: MDAPanc-28, pretreatment 3 hours then gemcitabine 3 hours
Procedure: At the same time, the present inventors also made a comparison with the other NF-κB inhibitors PS1145 and PS341. […] Subsequently, a gel shift assay was performed to examine the effect on NF-κB activation.

[5] = system: human pancreas cancer cell line MDAPanc-28; assay: DNA fragmentation assay (apoptosis); format: cell-based; details: MDAPanc-28, TNF-α 5 ng/ml 24 hours, then with or without FUT 24 hours
Procedure: After adding 1000 U/ml of protease K, the sample was further incubated for 5 hours at 50° C. After extracting DNA with phenol/chloroform/isoamyl alcohol, isopropanol and ammonium acetate were added to the collected water-soluble fractions in order to collect precipitates. The precipitates were then rinsed with 70% ethanol and dissolved in Tris-EDTA buffer. Electrophoresis was performed on a 2% agarose gel and DNA bands were confirmed by using ethidium bromide. The present inventors examined the concomitant effect of FUT and TNF-α on apoptosis in cancer cells. After treatment with TNF-α for 24 hours, the human pancreas cancer cell line […]-28 was further cultured for 24 hours with various concentrations of FUT being added. Cells prepared were then subjected to an MTT assay according to the method generally known to calculate the cell survival rates. Also, DNA was extracted to perform a DNA fragmentation assay. More specifically, with regard to the MTT assay, each well was seeded with 2000 cells per 100 μl of culture medium in a 96-well microtiterplate, followed by the above mentioned treatment. […] The absorbance of the samples was measured at 570 nm by using a microplate reader. […] Two independent experiments were performed, and the average was calculated. […]

[6] = Body weight of Panc-1 transplanted nude mice after treatment; format: in vivo; details: Panc-1 s.c., 6 weeks treatment, gemcitabine 100 mg/kg once a week i.p., FUT-175 30 mg/kg three times a week i.p.
Procedure: (§1) Tumor volume, the body weight and extirpated tumor weight were measured and pictures were taken for each group of mice.

[7] = system: human pancreas cancer cell line Panc-1; assay: Subcutaneous Panc-1 transplant in nude mice: tumor volume and weight; format: in vivo; details: Panc-1 s.c., 6 weeks treatment, gemcitabine 100 mg/kg once a week i.p., FUT-175 30 mg/kg three times a week i.p.
Procedure: as §1

Compound | apoptosis induction in combination with gemcitabine [1] | inhibitory effect on proliferation, 24-hour treatment [2] | inhibitory effect on proliferation, 48-hour treatment [2] | survival rate of normal cells [3] | effect on gemcitabine-induced activation of NF-κB [4] | DNA fragmentation [5] | apoptosis induction, single agent ([1]; MDAPanc-28, gemcitabine alone for 48 hours) | body weight of mice after administration [6] | Extirpated tumor weight, level of the control [7] | Tumor volume, level of the control [7]
CC(C)C[C@H](NC(=O)[C@H](Cc1ccccc1)NC(=O)c1cnccn1)B(O)O [PS341] | further enhanced the effect on apoptosis induction | no significant inhibitory effect on proliferation | no significant inhibitory effect on proliferation | significantly decreased the survival rate of normal cells | showed a similar trend |  |  |  |  | 
TNF-α |  |  |  |  |  | showed no DNA fragmentation |  |  |  | 
Nc1ccn([C@@H]2O[C@H](CO)[C@@H](O)C2(F)F)c(=O)n1 [gemcitabine] |  |  |  |  |  |  | induced apoptosis | showed weight reduction | approximately 50% | approximately 50%
O=C(Nc1cc(Cl)cc2c1[nH]c1cnccc12)c1cccnc1 [PS1145] | further enhanced the effect on apoptosis induction | did not show any significant inhibitory effect | concentration-dependent inhibitory effect on proliferation | significantly decreased the survival rate of normal cells | showed a similar trend |  |  |  |  | 
